Each structure is given as a SMILES string.

Experimental findings from patent US20260263517A1, “THERAPEUTIC METHODS WITH TARGET-LINKED SMALL MOLECULES AND ANTI-TARGET CAR T CELLS” (Seattle Children's Hospital (dba Seattle Children's …, priority 2022, published 2026) are described below.

The test system of the data set is MDA-MB-231 tumors. Put plainly: EC17 dose finding and CRS assessment in MDA-MB-231 tumor-bearing mice. Format: in vivo. The settings on record: for human IFNγ in mouse plasma, fold over CAR-T cells only: all EC17 treated tumor cohorts. As to the method: All animal care and use were performed according to NIH guidelines and in compliance with protocols approved by the Purdue University Animal Use and Care Committee. Female 4 to 5-week-old NOD/SCID gamma (NSG™) mice (stock number:005557) were purchased from The Jackson Faboratory (Bar Harbor, ME). Unless specifically indicated, all animals were maintained on a FA-deficient diet (TestDiet, St. Fouis, MO) upon arrival and throughout the study. To establish subcutaneous xenografts, MDA-MB-231 and HOS-FRα were implanted in the right flank region at 2.5×10^6 and 1×10^6 cells per animal, respectively. For intravenous xenografts, THP1-FRβ) cells were inoculated at 5×10^6 cells per animal. Subcutaneous tumors were measured 2-3 times per week with a caliper and calculated using the ellipsoidal formula (length×width2)/2. […] All animal doses (CAR-T cells, EC17, sodium fluorescein) were given intravenously.
In a therapeutic setting, EC17 CAM can be given before or after CAR-T cell injection. As described herein, the first dose of EC17 was administered 2-3.5 days after CAR-T cells to allow for an observation period of human T cells in tumor-bearing mice. Two batches of unsorted E2-CAR-T cells (23% or 39% EGFRt+, 1:1 CD4/CD8) were used for in vivo studies. On the day of infusion for each experiment (day 0), frozen CAR-T cells were quickly thawed at 37° C., washed 2× with Dulbecco's IX PBS (pH 7.4) and injected into the tail vein at desired EGFRt+E2-CAR-T cell doses. In addition, a small aliquot of CAR-T cells was analyzed by flow cytometry for CD4 to CD 8 ratio and differentiation status of CAR-T cells. On the first day of EC17 dose, tumor-bearing animals were randomly assigned into groups according to their tumor sizes or the same number of days post intravenous implantation (i.e., THP1-FRβ).
For MDA-MB-231 studies, mice received a high dose (~10 million) of a “clinical facsimile” of E2-CAR-T cells (~39% EGFRt+) with a low differentiation profile (FIG. 9). Two days later, 3 different treatment regimens of EC17 were started at an average tumor size of −293±39 mm^3 (FIG. 12). The EC17 dosing was given once-a-week (SIW) at 500 nmol/kg on Mondays, or as escalating doses of 5, 50 or 100, and 500 or 1000 nmol/kg (i.e., 5/50/500 or 5/100/1000) on Monday, Thursday, and Monday with a 6-day break in-between cycles. Control mice were left untreated (received CAR-T cells but no EC17). For comparison, a cohort of tumor-free littermates also received the same number of CAR-T cells without or with EC17 SIW at 500 nmol/kg.
The initial EC17 dose finding studies were conducted in MDA-MB-231 tumor bearing mice as shown by the schematic diagram of the experimental layout (FIG. 12, panel A). NSG mice without or with MDA-MB-231 tumors (~211±65 mm3) were engrafted on day 0 with −10 million of a “clinical facsimile” batch of E2-CAR-T cells (−39% EGFRt+, 51:49 CD4/CD8). This batch of CAR-T cells consisted of mostly TSCM and TCM phenotypes (see FIG. 9). Two days after the CAR-T cell injection, one cohort of tumor-bearing mice were left untreated while three cohorts were treated with different regimens of EC17, including single injection per week (SIW) at 500 nmol/kg, or as escalating EC17 dose levels of 5/50/500 (Escalation-1) or 5/100/1000 nmol/kg (Escalation-2) given on a Monday/Thursday/Monday schedule with 1-week drug-free intervals. For comparison, two tumor-free cohorts were either untreated or treated with EC17 SIW at 500 nmol/kg.

Setting [1] is: ~10 million CAR-T cells, continued EC17 dosing independent of the regimen.

In turn, `NC1=NC2N=CC(CNc3ccc(C(=O)N[C@@H](CCC(=O)NCCNC(=S)Nc4ccc(-c5c6ccc(=O)cc-6oc6cc(O)ccc56)c(C(=O)O)c4)C(=O)O)cc3)=NC2C(=O)N1` (stereo partly drawn) [EC17, FA-(γ)-ethylenediamine-FITC] displayed a cures (EC17-treated cohorts) of 100%. In addition, the body weight loss entry is given as “persistent body weight loss” (EC17 Escalation-2 regimen 5/100/1000 nmol/kg) and “significant body weight losses” under setting [1]. For the setting “EC17 SIW at 500 nmol/kg”, the “onset of CRS and body weight loss” value was “earliest onset of CRS and body weight loss”. In addition, the “human IFNγ in mouse plasma, fold over CAR-T cells only” value by setting is: (day 11 (~20 hours after previous EC17 dose)) ~ 30 ×; (day 12 (~42 hours after previous EC17 dose)) ~ 10 ×. Further, the “EC17 dose triggering severe CRS (grade≥3)” value (in combination with a high CAR-T cell dose) is listed as ≥ 500 nmol/kg. The “persistence of CAR-T cells in mouse blood” value (tumor-bearing animals, last measurement) is “up to 54 days”. Also, the “CRS symptoms (grades)” value under setting [1] is recorded as 2-3.
